The source of these data is publication PMC8038958 (The AAPS Journal, 2021).

A short description of the series: Population pharmacokinetic analysis (NONMEM, two-compartment model) of vancomycin serum concentrations from routine TDM.
[1] abbreviates: structural base model without covariates, estimate (RSE %).

As to `CN[C@H](CC(C)C)C(=O)N[C@H]1C(=O)N[C@@H](CC(N)=O)C(=O)N[C@H]2C(=O)N[C@H]3C(=O)N[C@H](C(=O)N[C@H](C(=O)O)c4cc(O)cc(O)c4-c4cc3ccc4O)[C@H](O)c3ccc(c(Cl)c3)Oc3cc2cc(c3O[C@@H]2O[C@H](CO)[C@@H](O)[C@H](O)[C@H]2O[C@H]2C[C@](C)(N)[C@H](O)[C@H](C)O2)Oc2ccc(cc2Cl)[C@H]1O` [Vancomycin], the “estimated exponent of TBW on V1 and V2” value (alternative model with power function instead of linear TBW, not retained) is on record as 1.05. Besides, the CL (structural base model without covariates, 1892 children 1-18 years, normal weight, overweight, obese, intermittent i.v. infusion, estimate (RSE %)) was 2.17 (2) L/h. Further, under setting [1], the “Q (inter-compartmental clearance between V1 and V2)” value is recorded as 2.24 (4) L/h; the “V1 (volume of distribution of central compartment)” value is given as 5.27 (8) L; the “V2 (volume of distribution of the peripheral compartment)” value is on record as 11.9 (8) L.
